In patent publication US20250114356A1, “INDAZOLE BASED COMPOUNDS AND ASSOCIATED METHODS OF USE” (Arvinas Operations, Inc., priority 2020, published 2025):

Assays:
Format in all cases: cell-based
G2019S LRRK2 = molecular target: T1, G2019S LRRK2 (Homo sapiens, UniProt Q5S007, G2019S); experiment: LRRK2 degradation assay, G2019S LRRK2-HiBit expressed from plasmid in HEK293 cells; settings: HEK293 cells transfected with HiBit-tagged G2019S LRRK2, 24 hours compound incubation
T1 construct: expressed in transfected cells; host or cells: HEK293 (ATCC CRL-1573), transient transfection, ubiquitin promoter
T1 sequence (Q5S007 whole entry G2019S): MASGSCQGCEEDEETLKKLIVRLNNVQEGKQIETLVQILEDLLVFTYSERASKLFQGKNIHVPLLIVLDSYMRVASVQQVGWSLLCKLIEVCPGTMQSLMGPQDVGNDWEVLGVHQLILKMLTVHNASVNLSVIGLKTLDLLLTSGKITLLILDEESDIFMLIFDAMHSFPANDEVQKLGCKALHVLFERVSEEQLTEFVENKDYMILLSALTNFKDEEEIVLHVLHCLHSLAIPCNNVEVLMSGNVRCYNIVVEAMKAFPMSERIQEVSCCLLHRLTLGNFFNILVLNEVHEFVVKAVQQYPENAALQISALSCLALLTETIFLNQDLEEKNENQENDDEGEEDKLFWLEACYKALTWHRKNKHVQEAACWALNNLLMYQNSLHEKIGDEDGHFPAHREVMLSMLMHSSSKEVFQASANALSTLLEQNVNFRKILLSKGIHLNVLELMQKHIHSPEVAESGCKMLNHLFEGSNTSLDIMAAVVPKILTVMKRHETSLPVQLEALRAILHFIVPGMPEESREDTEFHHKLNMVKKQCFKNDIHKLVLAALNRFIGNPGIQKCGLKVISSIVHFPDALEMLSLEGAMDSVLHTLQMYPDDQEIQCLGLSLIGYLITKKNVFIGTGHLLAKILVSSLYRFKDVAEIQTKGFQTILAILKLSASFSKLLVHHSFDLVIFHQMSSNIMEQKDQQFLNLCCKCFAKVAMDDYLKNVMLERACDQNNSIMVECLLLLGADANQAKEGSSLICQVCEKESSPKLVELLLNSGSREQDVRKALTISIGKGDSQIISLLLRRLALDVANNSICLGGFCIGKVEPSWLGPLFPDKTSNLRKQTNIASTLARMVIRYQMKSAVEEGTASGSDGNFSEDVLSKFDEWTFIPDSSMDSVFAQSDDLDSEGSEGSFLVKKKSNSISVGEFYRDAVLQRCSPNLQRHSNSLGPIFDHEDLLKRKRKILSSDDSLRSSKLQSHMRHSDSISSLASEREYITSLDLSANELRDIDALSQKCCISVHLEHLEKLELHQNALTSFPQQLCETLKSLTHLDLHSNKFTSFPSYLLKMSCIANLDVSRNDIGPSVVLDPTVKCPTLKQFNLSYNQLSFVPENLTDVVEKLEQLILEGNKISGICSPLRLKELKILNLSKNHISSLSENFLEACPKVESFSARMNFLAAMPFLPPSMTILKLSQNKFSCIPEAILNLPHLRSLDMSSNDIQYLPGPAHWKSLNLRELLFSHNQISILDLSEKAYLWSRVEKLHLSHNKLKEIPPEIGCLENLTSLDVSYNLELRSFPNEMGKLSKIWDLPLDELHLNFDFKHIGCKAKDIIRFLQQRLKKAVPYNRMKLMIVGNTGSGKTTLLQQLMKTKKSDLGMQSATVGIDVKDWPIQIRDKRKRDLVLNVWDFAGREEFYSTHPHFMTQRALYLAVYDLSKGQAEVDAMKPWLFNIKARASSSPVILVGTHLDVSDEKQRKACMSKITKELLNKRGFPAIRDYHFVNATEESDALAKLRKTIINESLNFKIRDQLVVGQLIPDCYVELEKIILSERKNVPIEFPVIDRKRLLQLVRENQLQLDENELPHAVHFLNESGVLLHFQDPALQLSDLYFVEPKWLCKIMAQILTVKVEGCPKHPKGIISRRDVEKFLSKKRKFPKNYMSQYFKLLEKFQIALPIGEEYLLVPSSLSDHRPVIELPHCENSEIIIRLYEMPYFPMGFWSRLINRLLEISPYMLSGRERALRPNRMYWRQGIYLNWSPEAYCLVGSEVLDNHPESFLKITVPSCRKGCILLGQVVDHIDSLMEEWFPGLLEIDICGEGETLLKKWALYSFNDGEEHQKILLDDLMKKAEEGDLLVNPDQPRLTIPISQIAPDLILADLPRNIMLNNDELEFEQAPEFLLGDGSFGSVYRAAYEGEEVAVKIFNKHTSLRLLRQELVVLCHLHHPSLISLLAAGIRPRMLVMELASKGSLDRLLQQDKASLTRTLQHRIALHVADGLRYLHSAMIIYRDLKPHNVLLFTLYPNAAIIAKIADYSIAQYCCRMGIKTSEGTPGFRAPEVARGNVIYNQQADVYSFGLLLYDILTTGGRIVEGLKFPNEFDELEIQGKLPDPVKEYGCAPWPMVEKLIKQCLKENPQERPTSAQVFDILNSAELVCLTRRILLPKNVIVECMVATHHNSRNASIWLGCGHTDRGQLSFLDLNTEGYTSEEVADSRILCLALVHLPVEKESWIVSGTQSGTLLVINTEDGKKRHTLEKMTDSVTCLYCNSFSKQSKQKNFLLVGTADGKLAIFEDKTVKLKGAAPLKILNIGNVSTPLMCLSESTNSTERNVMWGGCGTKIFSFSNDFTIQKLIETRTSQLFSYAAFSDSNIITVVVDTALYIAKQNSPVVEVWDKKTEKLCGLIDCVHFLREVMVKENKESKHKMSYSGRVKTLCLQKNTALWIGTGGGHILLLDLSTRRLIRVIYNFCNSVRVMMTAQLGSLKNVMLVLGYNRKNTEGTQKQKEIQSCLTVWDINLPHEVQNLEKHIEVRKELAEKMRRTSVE
Summary of the method: (§1)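 HEK293 cells co-transfected with ubiquitin-promoter C-terminal HiBit-tagged wild-type or G2019S LRRK2 plus firefly luciferase, then treated with compound dose-responses for 24 hours at 37° C. HiBit/firefly luciferase ratio (dual Nano-Glo read) normalized to % DMSO median; DC50 and Dmax fitted per plate, 6 replicates over two days.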

wildtype LRRK2 = molecular target: T2, wildtype LRRK2 (Homo sapiens, UniProt Q5S007); experiment: LRRK2 degradation assay, wildtype LRRK2-HiBit expressed from plasmid in HEK293 cells; settings: HEK293 cells transfected with HiBit-tagged wildtype LRRK2, 24 hours compound incubation; for Dmax: read-out: **WT Dmax (%); for DC50: read-out: *WT DC50
T2 construct: expressed in transfected cells; host or cells: HEK293 (ATCC CRL-1573), transient transfection, ubiquitin promoter
T2 sequence (Q5S007 whole entry): as the sequence (Q5S007 whole entry G2019S) above, with S2019G counted along it
Summary of the method: as §1

[1] = molecular target: T3, LRRK2 (endogenous gene tagged with a HiBit sequence) (Homo sapiens, UniProt Q5S007); experiment: LRRK2 degradation assay, endogenous LRRK2 gene tagged with HiBit in HEK293 cells; settings: 24 hours compound incubation; for Dmax: read-out: **Endogenous WT Dmax (%); for DC50: read-out: *Endogenous WT DC50
T3 construct: endogenous in cells; host or cells: HEK293 with a HiBit knock-in at the endogenous LRRK2 locus, stably expressing firefly luciferase
T3 sequence (Q5S007 whole entry): as the sequence (Q5S007 whole entry G2019S) above, with S2019G counted along it
Protocol: The assay measures the degradation of LRRK2 in cells where the C-terminus (3′) of the endogenous gene has been tagged with a HiBit sequence in HEK293 cells. The cells also express firefly lucisferase, expressed from a Cytomegalovirus promoter and introduced into the HiBit tagged cells and stably expressed. The Nano-Glo® Dual Luciferase Reporter Assay System (Promega™, Madison, WI) was utilized.
Day 1—Preparation of Compound and Assay Plates. Two sets of plates were prepared: a triplicate set for the HiBit assay in white 384-well plates and a triplicate set of plate in black 384-well plates for the Alamar Blue cell viability assay. Briefly, the growth media (DMEM+Glutamax-10% fetal bovine serum-1% Penicillin-Streptomicin) from two T128 flasks was aspirated from the flasks. Cells were washed with Dulbecco's Phosphate Buffered Saline (dPBS) and aspirated. Trypsin (3 mL per flask) was added and the flasks were incubated for 2-3 minutes.
Ten mL of OptiMEM-10% fetal bovine-1% penicillin-streptomycin (hereinafter, “OptiMEM media”) was added to the flask and the cells and transferred to a 50 mL conical tube. A cell count (25 ul of cell into Effendorf vial+25 ul of Trypan Blue Stain) was performed and the cell density adjusted to 15,000 cell/45 μl/well (3.33×10^5/mL) in OptiMEM media.
Forty-five microliters of the cell suspension (15,000 cells) was aliquoted to each well of the white 384-well plate. The plates incubated at room temperature for 10 minutes before being placed in the 37° C.+5% CO2 incubator overnight
Day 2—Compound Treatment. Exemplary compounds were prepared at a 1 mM starting concentration and 1:3 serial dilution for 11 points CRC prepared and stored in the freezer. The Master Compound Plate was thawed overnight at room temperature. DMSO (20 μL) was added into column 24 of the Master Compound Plate for negative control and 20 μL of 300 μM of Exemplary Compound 4 in column 23 as positive control.
Intermediate Compound Plate with 4% DMSO in OptiMEM Media. DMSO was added to warm OptiMEM media to achieve a 4% DMSO solution (approximately 50 mL/plate). One-hundred microliters of the OptiMEM-4% DMSO was aliquoted to each well of 384-Well Deep Well Microplates.
The Master Compound Plate and the Intermediate Compound Plate were spun down.
One microliter of compound from the Master Compound Plate was transferred into the Intermediate plate (a 1:100 dilution). […]
Day 3—HiBit Assay. […] Fluorescence of each plate was read on a plated reader for the Alamar Blue viability assay. […]
The One Glo luciferase mixture was prepared. […] The luminescence of each plate was read on a plate reader.
1:100 DLR substrate and 1:100 LgBiT Protein dilution were added to the Promega Stop and Glo buffer and mixed just before addition to assay plates. […] The luminescence of each plate was read on a plate reader. […]

Compound | DC50 (G2019S LRRK2) [nM] | Dmax (G2019S LRRK2) [%] | Dmax (wildtype LRRK2) [%] | DC50 (wildtype LRRK2) [nM] | Dmax [1] [%] | DC50 [1] [nM]
C[C@H]1CN(c2cc(-c3n[nH]c4ccc(OC5(C)CC5)cc34)ncn2)CCN1CCOCCOCCOCCOc1ccc2c(c1)C(=O)N(C1CCC(=O)NC1=O)C2=O (stereo partly drawn) [compound 4, 2-(2,6-dioxopiperidin-3-yl)-5-{2-[2-(2-{2-[(2S)-2-methyl-4-{6-[5-(1-methylcyclopropoxy)-1H-indazol-3-yl]pyrimidin-4-yl}piperazin-1-yl]ethoxy}ethoxy)ethoxy]ethoxy}-2,3-dihydro-1H-isoindole-1,3-dione] | 10 to 50 | 50 to 70 | 50 to 70 | < 10 | 50 to 70 | < 10
C[C@H]1CN(c2cc(-c3n[nH]c4ccc(OC5(C)CC5)cc34)ncn2)CCN1CC1CCN(CC2CCN(c3ccc4c(c3)C(=O)N(C3CCC(=O)NC3=O)C4=O)CC2)CC1 (stereo partly drawn) [compound 24, 2-(2,6-dioxopiperidin-3-yl)-5-{4-[(4-{[(2S)-2-methyl-4-{6-[5-(1-methylcyclopropoxy)-1H-indazol-3-yl]pyrimidin-4-yl}piperazin-1-yl]methyl}piperidin-1-yl)methyl]piperidin-1-yl}-2,3-dihydro-1H-isoindole-1,3-dione] | < 10 | ≥ 70 | 50 to 70 | < 10 | 50 to 70 | < 10
